Measured values from patent US20250136934A1, “PRODUCTION OF INDUCED MIDBRAIN DOPAMINERGIC PROGENITOR CELLS FROM PLURIPOTENT STEM CELLS” (NUWACELL BIOTECHNOLOGIES CO., LTD., priority 2023, published 2025).

Tested on: FOXA2+ imDAP cells
Assay: FACS analysis of FOXA2 expression of imDAP cells derived from hiPSCs
Assay type: cell-based, human
Conditions: 4-step protocol, Day 16
Method: • 1. Individualize and collect cells by either Accutase or TrypLE treatment. • 2. Wash cells with 1 ml PBS and pellet cells at 250×g for […]. • 3. Remove supernatant, add ˜200 μl of 4% PFA, mix and fix for 10 min at RT. • 4. Pellet cells at 350×g for 5 min. • 5. Wash cells by 1 ml of FACS buffer and pellet cells at 350×g for 5 min. • 6. Remove supernatant, add 200 μl/tube of FACS buffer/0.1% Triton X, mix for 10 min at RT. • 7. Wash cells by 1 ml of FACS buffer and pellet cells at 350×g for 5 min. • 8. Remove supernatant, add 200 μl/tube of primary antibody diluted in FACS buffer, mix gently, and incubate for 30 min at RT. • 9. Wash cells by 1 ml of FACS buffer and pellet cells at 350×g for 5 min. • 10. Remove supernatant, and add 200 μl of secondary antibody diluted in FACS buffer, mix gently, and incubate for 30 min at RT. • 11. Wash cells by 1 ml of FACS buffer and pellet cells at 300×g for 5 min. • 12. Remove supernatant, add 200 μl of FACS buffer, and run samples on the flow cytometer.
On Day-1, EB formation (Stage 1) was carried out by dissociating hiPSCs (Nuwacell) to form a single-cell suspension and resuspending it in Epic medium (Nuwacell, #RP01001) containing 10 μM Blebbistatin (MCE, #HY-13441) in T25 flasks on a belly dancer and culturing the cells overnight. On Day 0, ventral midbrain floor plate differentiation (Stage 2) was initiated by changing the medium to a Stage 2-1 differentiation medium containing DMEM: F12/B27 (plus Vitamin A) (98:2, v/v) as basal medium and supplemented with 0.2 μM LDN193189, 10 μM SB431542, 1 μg/mL SHH C24II and 1.25 μM CHIR99021 and culturing the cells for 3 Days. From Day 3, the basal medium was changed to DMEM: F12/B27 (minus Vitamin A) (98:2, v/v), and CHIR concentration was boosted to 7.5 μM until Day 10 (Stage 2-2). SB431542 was withdrawn on Day 4, and SHH C24II was withdrawn on Day 8. From Day 10 (Stage 2-3), the medium was changed to a differentiation medium containing DMEM: F12/B27 (minus Vitamin A) (98:2, v/v) as basal medium and supplemented with 0.2 μM LDN193189 and 3 μM CHIR99021. During the cell culture, each of the differentiation media was replaced every day. On Day 16 (at the end of S2-3), EBs were dissociated for single cells and collected for analysis. The cells of each group were stained with FOXA2-PE antibody (BD, #561689), the percentage of FOXA2+ imDAP cells were analyzed by flow cytometry (FIG. 5). The above experiment was repeated for three times and the derived imDAP cells were named as Lot1, Lot2 and Lot3, respectively.
On Day-1, EB formation (Stage 1) was carried out by dissociating hiPSCs (Nuwacell) to form a single-cell suspension and resuspending it in Epic medium (Nuwacell, #RP01001) containing 10 μM Blebbistatin (MCE, #HY-13441) in T25 flasks on a belly dancer and culturing the cells overnight. On Day 0, ventral midbrain floor plate differentiation (Stage 2) was initiated by changing the medium to a Stage 2-1 differentiation medium containing DMEM: F12/B27 (plus Vitamin A) (98:2, v/v) as basal medium and supplemented with 0.2 μM LDN193189, 20 μM SB431542, 1.2 μM CHIR99021, and 1 μg/mL SHH C24II or the combination of SHH agonists including 500 ng/mL SHH C24II, 2 μM Purmorphamine and 10 nM SAG and culturing the cells for 3 days. From Day 3, the basal medium was changed to DMEM: F12/B27 (minus Vitamin A) (98:2, v/v). Cells were exposed to Boost-CHIR concentration of 7.5 μM starting from Day 4 to Day 6 (Stage 2-2), followed by a low CHIR concentration of 1.2 μM (Stage 2-3) until Day 10. […]

Compound: Cc1cnc(-c2cnc(NCCNc3ccc(C#N)cn3)nc2-c2ccc(Cl)cc2Cl)[nH]1 [CHIR, CHIR99021]
- percentage of cells positive for FOXA2 (low CHIR concentration 1.2 μM in Stage 2-3 (Day 8 to Day 10)): 91.02%
- percentage of cells positive for FOXA2 (low CHIR concentration 1.4 μM in Stage 2-3 (Day 8 to Day 10)): 81.89%
- percentage of cells positive for FOXA2 (low CHIR concentration 1.6 μM in Stage 2-3 (Day 8 to Day 10)): 85.96%
